Source: patent US20100297015A1, “CANCER BIOMARKER AND USES THEREOF” (priority 2007, published 2010)

Experiments:
[1] = test system: human GTPCH; assay: GCH1 siRNA transfection of GCHtet-off and MCF7 cells, expression of GTPCH and phosphor-Akt; format: cell-based; settings: 10 nM siRNA, Lipofactamine RNAiMAX, 48 hours
Experimental: GCHtet-off cells (described above) and MCF7 cells (4×10^5/well) were cultured in a 24-well plate and transfected with 10 nM of GCH1 siRNA (comprising the sequences of Seq ID Nos: 1 and 2) and scramble siRNA (SCR), respectively using Lipofactamine RNAiMAX. After 48 hours, the cells were harvested and the expression of human GTPCH, phosphor-Akt and GAPDH was determined. The results are illustrated in FIG. 8. A correlation between human GTPCH expression and phosphor-Akt was observed.

[2] = test system: GTPCH; settings: competes with GTP, a substrate for GTPCH (Gross and Levi 1992); cited from earlier work

Molecule | Akt phosphorylation [1] | GTPCH expression [1] | GTPCH protein activity [2]
GCH1 siRNA: siRNA comprising the sequences of Seq ID Nos: 1 and 2, designed to reduce GTPCH expression (chain 1 CCUAAACGAUGCUAUAUUUTT; chain 2 AAAUAUAGCAUCGUUUAGGTT; chemistry not given here) | Reduction | Downregulated | –
Nc1cc(O)nc(N)n1 [DAHP, 2,4-diamino-6-hydroxypyrimidine] | – | – | inhibits GTPCH protein activity
